Measurements from US10011627B2, “C-aryl glucoside derivative, preparation methods thereof, and medical applications thereof” (YOUNGENE THERAPEUTICS CO., LTD, priority 2013, dated 2018).

What was measured:
SGLT1 = SGLT1 (Homo sapiens (Human), UniProt P13866); assay: Activity assay of SGLT1: [14C] methyl α-D-glucopyranoside uptake in SGLT1 transiently transferred HEK293 cells; format: cell-based; details: for IC50: SGLT1 transiently transferred HEK293 cells, [14C] methyl α-D-glucopyranoside, 2 hours at 37° C.; for inhibition of SGLT1 (conclusion in words): conclusion from the IC50 table
Sequence of SGLT1 (P13866 whole entry, species assumed): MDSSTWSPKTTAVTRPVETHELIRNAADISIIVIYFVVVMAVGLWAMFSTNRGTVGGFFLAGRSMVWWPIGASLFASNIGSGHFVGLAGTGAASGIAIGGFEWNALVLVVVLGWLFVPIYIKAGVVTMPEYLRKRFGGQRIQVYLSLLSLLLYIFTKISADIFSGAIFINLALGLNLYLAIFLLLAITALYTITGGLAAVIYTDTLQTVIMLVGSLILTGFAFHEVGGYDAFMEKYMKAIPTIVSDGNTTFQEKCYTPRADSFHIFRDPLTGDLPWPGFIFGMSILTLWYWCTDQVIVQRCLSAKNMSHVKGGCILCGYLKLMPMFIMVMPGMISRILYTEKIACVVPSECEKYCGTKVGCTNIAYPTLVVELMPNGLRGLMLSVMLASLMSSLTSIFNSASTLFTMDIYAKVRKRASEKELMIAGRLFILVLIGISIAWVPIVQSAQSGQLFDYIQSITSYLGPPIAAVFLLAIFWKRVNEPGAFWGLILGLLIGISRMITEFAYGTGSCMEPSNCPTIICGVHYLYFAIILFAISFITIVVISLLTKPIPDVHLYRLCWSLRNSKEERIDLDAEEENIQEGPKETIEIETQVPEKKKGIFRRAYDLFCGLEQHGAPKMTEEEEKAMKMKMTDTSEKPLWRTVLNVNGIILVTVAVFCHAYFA
Description: (§1) Activity Assay of SGLT1 and SGLT2:
(§2) The following method was used to determine the inhibitory activity of the compounds of the present invention on SGLT1 and SGLT2. The experimental method is summarized as follows:
(§3) SGLT1 and SGLT2 transiently transferred HEK293 cells (prepared according to the existing literature “Diabetes, 57, 1723-1729, 2008”, wherein cDNA of SGLT1 and SGLT2 was purchased from Origene company) were seeded in a 96-well plate. The density of the cells was 1-1.5×10^4. The cells were cultured at 37° C. and 5% CO2 for 48 hours, and then washed twice with 200 μL sodium-free buffer. 90 μL sodium-containing buffer of the test compound at different concentrations was added to the well. Each test compound was repeated in three wells for each concentration. The cells were cultured at 37° C. for 15 minutes, then 10 μL (in number 0.1 μCi [^14C]) Methyl α-D-glucopyranoside was added to each well of the 96-well plate. The cells were further cultured at 37° C. for 2 hours, then the supernatant was discarded. The cells were washed twice with pre-chilled sodium-free buffer and then dissolved in 100 μL NaOH (200 mM). 100 μL scintillation solution was added, and mixed well. Scintiloscope was used for the quantitative detection of ^14C.
(§4) IC50 values of the compounds of various examples were calculated from the […] at different concentrations.

SGLT2 = SGLT2 (Homo sapiens (Human), UniProt P31639); assay: Activity assay of SGLT2: [14C] methyl α-D-glucopyranoside uptake in SGLT2 transiently transferred HEK293 cells; format: cell-based; details: 2 hours at 37° C.
Sequence of SGLT2 (P31639 whole entry, species assumed): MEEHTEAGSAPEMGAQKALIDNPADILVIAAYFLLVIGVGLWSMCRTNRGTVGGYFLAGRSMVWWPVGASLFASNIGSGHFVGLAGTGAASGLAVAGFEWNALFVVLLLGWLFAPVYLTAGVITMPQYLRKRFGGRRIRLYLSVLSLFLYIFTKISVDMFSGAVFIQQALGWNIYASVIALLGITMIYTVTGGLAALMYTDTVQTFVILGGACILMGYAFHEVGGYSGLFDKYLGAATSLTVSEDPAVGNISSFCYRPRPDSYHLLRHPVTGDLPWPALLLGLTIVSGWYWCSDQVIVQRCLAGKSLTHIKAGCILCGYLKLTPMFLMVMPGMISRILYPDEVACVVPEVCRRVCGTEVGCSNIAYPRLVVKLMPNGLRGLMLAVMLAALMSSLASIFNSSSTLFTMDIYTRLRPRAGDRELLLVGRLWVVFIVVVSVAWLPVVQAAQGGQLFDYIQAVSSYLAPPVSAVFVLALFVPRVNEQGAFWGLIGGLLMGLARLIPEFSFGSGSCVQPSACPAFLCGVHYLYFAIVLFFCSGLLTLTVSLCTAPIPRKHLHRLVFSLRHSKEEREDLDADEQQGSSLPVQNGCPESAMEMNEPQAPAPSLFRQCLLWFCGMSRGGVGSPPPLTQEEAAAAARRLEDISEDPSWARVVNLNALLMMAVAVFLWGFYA
Description: as §1, §2, §3, §4

Row | IC50 (SGLT1) | inhibition of SGLT1 (conclusion in words) (SGLT1) | IC50 (SGLT2) | Structure (SMILES)
1 | 16.6 nM | inhibited SGLT1 | 1.49 nM | CCc1ccc([C@]23OC[C@](CO)(O2)[C@@H](O)[C@H](O)[C@H]3O)cc1Cc1ccc2c(c1)OCCO2 [Example 9, (1S,2S,3S,4R,5S)-5-(3-((2,3-dihydrobenzo[b][1,4]dioxin-6-yl)methyl)-4-ethylphenyl)-1-(hydroxymethyl)-6,8-dioxabicyclo[3.2.1]octane-2,3,4-triol]
2 | 17.2 nM | inhibited SGLT1 | 1.82 nM | CCCc1ccc([C@]23OC[C@](CO)(O2)[C@@H](O)[C@H](O)[C@H]3O)cc1Cc1ccc2c(c1)OCCO2 [Example 7, (1S,2S,3S,4R,5S)-5-(3-((2,3-dihydrobenzo[b][1,4]dioxin-6-yl)methyl)-4-propylphenyl)-1-(hydroxymethyl)-6,8-dioxabicyclo[3.2.1]octane-2,3,4-triol]
3 | 1.21 nM |  | 583 nM | Cc1ccc([C@]23OC[C@](CO)(O2)[C@@H](O)[C@H](O)[C@H]3O)cc1Cc1ccc2c(c1)OCCO2 [Example 8, (1S,2S,3S,4R,5S)-5-(3-((2,3-dihydrobenzo[b][1,4]dioxin-6-yl)methyl)-4-methylphenyl)-1-(hydroxymethyl)-6,8-dioxabicyclo[3.2.1]octane-2,3,4-triol]
4 | 2560 nM |  | 19.8 nM | OC[C@H]1S[C@@H](c2cc3c(c(Cc4ccc5c(c4)OCCO5)c2)OCC3)[C@H](O)[C@@H](O)[C@@H]1O [Example 3, (2S,3R,4R,5S,6R)-2-(7-((2,3-dihydrobenzo[b][1,4]dioxin-6-yl)methyl)-2,3-dihydrobenzofuran-5-yl)-6-(hydroxymethyl)tetrahydro-2H-thiopyran-3,4,5-triol]
5 | 15.7 nM | inhibited SGLT1 | 3.67 nM | OC[C@@]12CO[C@@](c3ccc(C4CC4)c(Cc4ccc5c(c4)OCCO5)c3)(O1)[C@H](O)[C@@H](O)[C@@H]2O [Example 2, (1S,2S,3S,4R,5S)-5-(4-cyclopropyl-3-((2,3-dihydrobenzo[b][1,4]dioxin-6-yl)methyl)phenyl)-1-(hydroxymethyl)-6,8-dioxabicyclo[3.2.1]octane-2,3,4-triol]
6 | 953 nM |  | 0.58 nM | OC[C@@]12CO[C@@](c3ccc(Cl)c(Cc4ccc5c(c4)OCCO5)c3)(O1)[C@H](O)[C@@H](O)[C@@H]2O [Example 1, (1S,2S,3S,4R,5S)-5-(4-chloro-3-((2,3-dihydrobenzo[b][1,4]dioxin-6-yl)methyl)phenyl)-1-(hydroxymethyl)-6,8-dioxabicyclo[3.2.1]octane-2,3,4-triol]
7 | 89 nM | inhibited SGLT1 | 132 nM | Cc1ccc([C@@H]2S[C@H](CO)[C@@H](O)[C@H](O)[C@H]2O)cc1Cc1ccc2c(c1)OCCO2 [Example 4, (2S,3R,4R,5S,6R)-2-(3-((2,3-dihydrobenzo[b][1,4]dioxin-6-yl)methyl)-4-methylphenyl)-6-(hydroxymethyl)tetrahydro-2H-thiopyran-3,4,5-triol]
